In paper PMC7277541, “Antimicrobial and Antifungal Activities of Terpene-Derived Palladium Complexes” (Antibiotics, 2020):
In brackets after ≈: the same amount, converted by molar mass. Several values for one entry are separate records, joined by “and”; a condition that tells them apart may be missing. Equal entries are not always repeated.

Legend:
[1] = test system: C. neoformans var. grubii H99 ATCC 208821; assay: Antifungal MIC assay, C. neoformans; assay type: cell-based, Cryptococcus neoformans; details: 35 °C, 36 h, resazurin, growth inhibited ≥ 80%, range tested 0.25 to 32 μg/mL; for Minimum inhibitory concentration (MIC) C. neoformans ATCC 208821: YNB, n = 2
Procedure: Screening against bacteria and yeasts for antimicrobial activity and toxicity against mammalian cells was performed in duplicate (n = 2). […] Becton Dickinson 242720) agar at 30 °C. A yeast suspension of 1 × 10^6 to 5 × 10^6 CFU/mL (as determined by OD530) was prepared from five colonies form the agar plates, and subsequently diluted with Yeast Nitrogen Base media (YNB; Becton Dickinson 233520), and added to each well of the compound containing plates (384-well plates, NBS; […] Plates were covered and incubated at 35 °C for 36 h without shaking. […] Fluconazole (Sigma Aldrich, F8929) was used as a positive inhibitor control on each plate for both strains.

C. albicans ATCC 90028 = assay: Antifungal MIC assay, C. albicans; assay type: cell-based, Candida albicans; details: YNB, 35 °C, 36 h, growth inhibited ≥ 80%; range tested 0.25 to 32 μg/mL; n = 2
Procedure: (§1) All screened compounds were > 95% purity as determined by NMR. Dry compounds were dissolved in dimethyl sulfoxide (DMSO), and serially diluted 2-fold to produce an 8-point dose response with DMSO/water and then added into microtiter plates with a final DMSO concentration of 0.5%, providing a concentration range of 0.25 to 32 μg/mL. Screening against bacteria and yeasts for antimicrobial activity and toxicity against mammalian cells was performed in duplicate (n = 2).
For the fungal assays, yeast strains C. neoformans var. grubii H99 ATCC 208821 and C. albicans ATCC 90028 were cultured for 3 days on Yeast Extract-Peptone Dextrose (YPD; Becton Dickinson 242720) agar at 30 °C. A yeast suspension of 1 × 10^6 to 5 × 10^6 CFU/mL (as determined by OD530) was prepared from five colonies form the agar plates, and subsequently diluted with Yeast Nitrogen Base media (YNB; Becton Dickinson 233520), and added to each well of the compound containing plates (384-well plates, NBS; Corning CLS3640) giving a final cell density of 2.5 × 10^3 CFU/mL and a total volume of 50 μL. Plates were covered and incubated at 35 °C for 36 h without shaking. Growth inhibition of C. albicans was determined measuring absorbance at 630 nm (OD630), while the growth inhibition of C. neoformans was determined measuring the difference in absorbance between 600 and 570 nm (OD600-570), after the addition of resazurin (0.001% final concentration; Sigma R7017) and incubation at 35 °C for 2 h, using media only as negative control and fungi without inhibitors as positive control. MIC values were determined as the lowest concentration at which the growth was inhibited at ≥ 80% (equivalent to no visible growth by eye). Fluconazole (Sigma Aldrich, F8929) was used as a positive inhibitor control on each plate for both strains.

[2] = test system: S. aureus (MRSA) ATCC 43300; assay: Antibacterial MIC assay, S. aureus (MRSA); assay type: cell-based, Staphylococcus aureus; details: CAMHB, 18 h, growth inhibited by ≥ 80%, range tested 0.25 to 32 μg/mL, n = 2
Procedure: Dry compounds were dissolved in dimethyl sulfoxide (DMSO), and serially diluted 2-fold to produce an 8-point dose response with DMSO/water and then added into microtiter plates with a final DMSO concentration of 0.5%, providing a concentration range of 0.25 to 32 μg/mL. Screening against bacteria and yeasts for antimicrobial activity and toxicity against mammalian cells was performed in duplicate (n = 2).
For the bacterial assays, each bacterial strain was cultured in Cation-Adjusted Mueller Hinton Broth (CAMHB; Bacto Laboratories 212322) at 37 °C overnight. Bacterial strains tested were methicillin resistant S. aureus (methicillin-resistant Staphylococcus aureus - MRSA) ATCC 43300, E. coli ATCC 25922, K. pneumoniae K6/ESBL ATCC 700603, P. aeruginosa ATCC 27853, A. baumannii ATCC 19606. A sample of each culture was then diluted 40-fold in fresh CAMHB and incubated at 37 °C for 1.5–3 h. The resultant mid-log phase cultures were diluted with CAMHB (CFU/mL measured by OD600), then added to each well of the compound-containing plates (384-well non-binding surface (NBS) plates; Corning CLS3640), giving a final cell density of 5 × 10^5 CFU/mL and a total volume of 50 μL. Plates were covered and incubated at 37 °C for 18 h without shaking. Inhibition of bacterial growth was determined by measuring absorbance at 600 nm (OD600), using media only as negative control and bacteria without inhibitors as positive control. MIC values were determined as the lowest concentration at which the growth was inhibited by ≥ 80% (equivalent to no visible growth by eye). Colistin sulfate (Sigma Aldrich, Castle Hill, Australia C4461) and vancomycin HCl (Sigma Aldrich, 861987) were used as positive inhibitor controls on each plate for Gram-negative and Gram-positive bacteria, respectively.

[3] = test system: human embryonic kidney cells (HEK293, ATCC CRL-1573); assay: Cytotoxicity assay (resazurin); assay type: cell-based; details: HEK293, 20 h incubation
Procedure: Screening against bacteria and yeasts for antimicrobial activity and toxicity against mammalian cells was performed in duplicate (n = 2). […] HEK293 cells were counted manually in a Neubauer hemocytometer and added to compound-containing plates (384-well plates, tissue culture treated (TC); Corning CLS3712) giving a final density of 5000 cells/well in a total volume of 50 μL, using Dulbecco's Modified Eagle Medium (DMEM; Life Technologies 11995-073) with 10% Fetal Bovine Serum (FBS; GE SH30084.03). […] Sigma R7017) and after further incubation for 3 h at 37 °C in 5% CO2. Media only was used as negative control and cells without inhibitors as positive growth control. CC50 (concentration at 50% cytotoxicity) values were calculated by curve fitting the inhibition values vs. log(concentration) using a sigmoidal dose-response function, with variable fitting values for bottom, top and slope. Tamoxifen (Sigma Aldrich, Australia T5648) was used as positive inhibitor control on each plate. Selectivity indices (SI) were calculated by dividing the CC50 value (μg/mL) by the MIC value (μg/mL) for a given bacterial or fungal strain.

[4] = test system: human red blood cells (HRBC); assay: Haemolysis assay; assay type: cell-based; details: 1 h at 37 °C
Procedure: as §1
Hemolytic activity was assessed against human red blood cells (HRBC), with data presented as HC10, corresponding to the concentration of the compound causing 10% hemolysis. Human whole blood (Australian Red Cross) was washed three times with 3 volumes of 0.9% NaCl and resuspended in a concentration of 0.5 × 10^8 cells/mL, determined by manual cell count in a Neubauer hemocytometer. Washed cells were added to compound containing plates (384-well polypropylene plates (PP); Corning 3657) for a final volume of 50 μL. The plate was shaken with incubation for 1 h at 37 °C. After incubation, the plates were centrifuged at 1000× g for 10 min to pellet cells and debris. Supernatant (25 μL) was then transferred to reading plates (384-well, polystyrene plated (PS), Corning CLS3680), with hemolysis determined by measuring the supernatant absorbance at […] (OD405), using cells without inhibitors as negative control and cells with 1% Triton X-100 (Sigma T8787) as positive control. HC10 and HC50 (concentration at 10% and 50% hemolysis, respectively) were calculated by curve fitting the inhibition values vs. log(concentration) using a sigmoidal dose-response function with variable fitting values for top, bottom and slope. Melittin (Sigma M2272) was used as positive hemolytic control on each plate. Human blood was sourced from the Australian Red Cross Blood Service. Selectivity indices (SI) were calculated by dividing the HC10 value (μg/mL) by the MIC value (μg/mL) for a given bacterial or fungal strain.

Row | Structure (SMILES) | Minimum inhibitory concentration (MIC) C. neoformans ATCC 208821 [1] | Minimum inhibitory concentration (MIC) C. albicans ATCC 90028 (C. albicans ATCC 90028) | Minimum inhibitory concentration (MIC) S. aureus ATCC 43300 [2] [µg/mL] | CC50 (concentration of 50% cytotoxicity) [3] [µg/mL] | HC10 (concentration of 10% haemolysis) [4] [µg/mL] | MIC ([1]; Cryptococcus neoformans, ATCC208821, YNB, n = 2, read-out: Minimum inhibitory concentration (MIC) C. neoformans ATCC 208821) [µg/mL]
1 | CN(C)CCN=C1C[C@H]2C[C@H](C2(C)C)[C@@]1(C)O.[Cl][Pd][Cl] [Compound 9] | 2—4 μg/mL and 2 μg/mL | 8—16 μg/mL and 16 μg/mL | >32 | >32 | – | –
2 | CC12CCC(CC1=NCCN=Cc1ccccc1[O][Pd][Cl])C2(C)C (stereo not drawn) [Compound 7] | 4—16 μg/mL and 4 μg/mL | – | >32 | >32 | – | –
3 | C[C@H](N=C1C[C@H]2C[C@H](C2(C)C)[C@@]1(C)O)c1cccc[c]1[Pd][Cl].C[C@H](N=C1C[C@H]2C[C@H](C2(C)C)[C@@]1(C)O)c1cccc[c]1[Pd][Cl] [Compound 1] | 0.5 µg/mL | 1 µg/mL | 4 | 11.9 | 3.9 | –
4 | CC1(C)[C@@H]2C[C@H]1[C@@](C)(O)[C@H](NCCN[C@@H]1C[C@H]3C[C@H](C3(C)C)[C@@]1(C)O)C2.[Cl][Pd][Cl] [Compound 10] | 4 µg/mL | 4 µg/mL | >32 | >32 | – | –
5 | CN(C)CCNCC1=CCC2CC1C2(C)C.[Cl][Pd][Cl] (stereo not drawn) [Compound 12] | – | 2 µg/mL | – | >32 | – | –
6 | CC(C)(C)c1cc(C=NCCN=C2C[C@H]3C[C@H](C3(C)C)[C@@]2(C)O)c([O][Pd][Cl])c(C(C)(C)C)c1 [Compound 6] | 4—16 μg/mL and 4 μg/mL | 4—16 μg/mL and 8 μg/mL | 8 | 4.5 | – | –
7 | CN(C)CCN=CC1=CCC2CC1C2(C)C.[Cl][Pd][Cl] (stereo not drawn) [Compound 11] | – | – | >32 | 10.8 | – | –
8 | CC12CCC(C(=NC(c3ccccc3)c3cccc[c]3[Pd][Cl])C1=O)C2(C)C.CC12CCC(C(=NC(c3ccccc3)c3cccc[c]3[Pd][Cl])C1=O)C2(C)C (stereo not drawn) [Compound 3] | 0.5 µg/mL | 2 µg/mL | 16 | 6.0 | – | –
9 | CC1(C)[C@H]2CC(=NCCN)[C@](C)(O)[C@@H]1C2.[Cl][Pd][Cl] [Compound 8] | 2—4 μg/mL and 4 μg/mL | 8—16 μg/mL and 8 μg/mL | >32 | >32 | – | –
10 | C[C@H](N[C@@H]1C[C@H]2C[C@H](C2(C)C)[C@@]1(C)O)c1cccc[c]1[Pd][Cl].C[C@H](N[C@@H]1C[C@H]2C[C@H](C2(C)C)[C@@]1(C)O)c1cccc[c]1[Pd][Cl] [Compound 4] | – | – | 32 | 16.6 | – | –
11 | OC(Cn1cncn1)(Cn1cncn1)c1ccc(F)cc1F [fluconazole, Fluconazole, reference compound] | – | – | – | – | – | 8 (≈ 26.1 µM)
12 | CC[C@H](C)[C@H](NC(=O)CN)C(=O)NCC(=O)N[C@@H](C)C(=O)N[C@H](C(=O)N[C@@H](CC(C)C)C(=O)N[C@@H](CCCCN)C(=O)N[C@H](C(=O)N[C@@H](CC(C)C)C(=O)N[C@H](C(=O)N[C@H](C(=O)NCC(=O)N[C@@H](CC(C)C)C(=O)N1CCC[C@H]1C(=O)N[C@@H](C)C(=O)N[C@@H](CC(C)C)C(=O)N[C@H](C(=O)N[C@@H](CO)C(=O)N[C@@H](Cc1c[nH]c2ccccc12)C(=O)N[C@H](C(=O)N[C@@H](CCCCN)C(=O)N[C@@H](CCCNC(=N)N)C(=O)N[C@@H](CCCCN)C(=O)N[C@@H](CCCNC(=N)N)C(=O)N[C@@H](CCC(N)=O)C(=O)N[C@@H](CCC(N)=O)C(N)=O)[C@@H](C)CC)[C@@H](C)CC)[C@@H](C)O)[C@@H](C)O)C(C)C)C(C)C [melittin, Melittin, reference compound] | – | – | – | – | 2.7 | –
